Assays:
[1] = Selective precipitation from waste printed circuit boards (Table 3): Au; conditions: 20% aqua regia solution from waste printed circuit boards; 0.02 mmol L, 1 hour
Procedure: (§1) End-of-life printed circuit boards were supplied by Edinburgh School of Chemistry workshop. Gold-tipped sections of the circuit boards (22.85 g) were cut off and soaked in 100 mL aqua regia for 24 hours. This solution was then diluted with deionised water to 250 mL and the metal content analysed by ICP-OES.
(§2) An aliquot of the e-waste solution (2 mL) was stirred with L (0.0059 g, 0.02 mmol, excess with respect to the gold concentration) for 1 hour at room temperature after which the stir bar was removed and the vial centrifuged. The supernatant was decanted and samples prepared for ICP-OES analysis to measure the uptake of metal. Samples were diluted by 1000× and 20× in 2% nitric acid prior to ICP-OES analysis. This procedure was repeated in triplicate.

[2] = Precipitation of HAuCl4 by L from 2 M HCl (Table 2); conditions: 0.01M HAuCl4 in 2M HCl after contact with L
Procedure: Table 2 below describes precipitation of HAuCl4 by L from 2 M HCl followed by its release from L as HAuCl4 using deionised water. All solutions were diluted 100× prior to ICP-OES analysis.

[3] = Selective stripping with H-tube apparatus (FIG. 3)
Procedure: Solid L (0.2 mmol) was added to one side of the H-tube with a stir bar. The metal-containing aqueous solution (2 mL) was then added to the solids and the mixture stirred for 1 hour at room temperature at 500 rpm, after which it was passed through the glass frit of the H-tube with the aid of compressed air or N2 gas. The filtrate was collected for ICP-OES analysis to determine metal uptake. The solids were subsequently washed with 2 M HCl (3×2 mL) for 30 mins, with each 2 mL solution being passed through the glass frit of the H-tube. The solids were then washed with ultrapure deionised water (5×2 mL) in the same manner. The use of a H-tube allows for all solids to be retained in the same vessel to minimise any loss of metal due to material transfer. This procedure was repeated in duplicate.
(a) orange bars: Percentage metal removed by precipitation from a 0.01 M mixed-metal solution in 6 M HCl.
(b) green bars: percentage of metal stripped from the precipitate by a 2 M HCl wash.
(c) blue bars: percentage of metal stripped from the precipitate after a subsequent wash with DI water.

[4] = Precipitation from 0.01 M mixed-metal solution in HCl (FIG. 2): Sn; conditions: excess L, 0.01 M mixed-metal solution in 6 M HCl
Procedure: (§3) Hydrochloric acid solutions (2 M and 6 M) were prepared by dilution of concentrated hydrochloric acid with deionised water. Mixed-metal solutions (0.01 M) were typically prepared by dilution of 0.1 M stock solutions of each individual metal salt solution in 2 or 6 M HCl.
(§4) Solid compound L (0.2 mmol or 0.02 mmol) was added to a vial with a magnetic stir bar and the metal-containing aqueous solution (2 mL) added. The mixture was stirred for 1 hour at room temperature (20° C.) at 500 rpm after which the stir bar was removed and the vial centrifuged. The supernatant was decanted and samples prepared for ICP-OES analysis to measure the uptake of metal by L. Samples were diluted by 100× in 2% nitric acid prior to ICP-OES analysis. This procedure was repeated in triplicate.
(§5) FIG. 2 is a graph showing percentage metal(s) removed by precipitation from a 0.01 M mixed-metal solution in 2 M or 6 M HCl following the addition of either 0.2 mmol of compound L (10-fold excess L relative to metal) or 0.02 mmol of L (equimolar).

[5] = Precipitation from multi-element ICP standard solutions (FIG. 4): Pt; conditions: multi-element ICP standard solutions in HCl, Pt present as Pt(II), excess L
Procedure: (§6) The following ICP multi-element standard solutions were used: Transition metal mix 3 for ICP supplied by Sigma Aldrich comprising 100 mg L^−1 Au, Ir, Os, Pd, Pt, Rh, Ru in 10% hydrochloric acid and ICP multi-element standard solution IV comprising 1000 mg L^−1 Ag, Al, B, Ba, Bi, Ca, Cd, Co, Cr, Cu, Fe, Ga, In, K, Li, Mg, Mn, Na, Ni, Pb, Sr, Tl, Zn in dilute nitric acid.
(§7) Each solution (1 mL) was diluted to 10 mL using either 2 M HCl or 6 M HCl, resulting in solutions of 10 ppm Au, Ir, Os, Pd, Pt, Rh, Ru and 100 mg L^−Al, B, Ba, Bi, Ca, Cd, Co, Cr, Cu, Fe, Ga, In, K, Li, Mg, Mn, Na, Ni, Pb, Sr, Tl, Zn. The solutions were filtered prior to use in precipitation experiments due to the precipitation of silver chloride, which was subsequently excluded from ICP-OES analysis. The precipitation method used for the 0.01 M mixed-metal solutions was followed.

[6] = Quantitative NMR solubility experiments; assay type: physicochemical
Procedure: ^1H NMR spectra were recorded on a Bruker Avance III 400 MHz spectrometer. 2 M and 6 M HCl solutions were diluted from concentrated HCl in D2O. A 0.1 M solution of L in 2 M or 6 M HCl was prepared by adding L (0.0178 g) to an NMR tube along with the relevant HCl/D2O solution (0.55 mL) and 1 M tert-butanol in D2O (0.05 mL) as an internal standard. Any undissolved solids were allowed to settle to the bottom of the NMR tube before acquiring ^1H NMR spectra.
^1H NMR spectra were acquired for 2 M HCl solutions between 300-350 K in 10 K increments and for 6 M HCl solutions between 300-330 K in 10 K increments; attempts to acquire additional spectra beyond 330 K for these latter samples were unsuccessful due to excessive line broadening of the spectra and difficulties with sample locking.

[7] = Selective precipitation from waste printed circuit boards (Table 3): Pb; conditions: 20% aqua regia solution from waste printed circuit boards; 0.02 mmol L, 1 hour
Procedure: as §1, §2

[8] = Selective precipitation from waste printed circuit boards (Table 3): Cu; conditions: 20% aqua regia solution from waste printed circuit boards; 0.02 mmol L, 1 hour
Procedure: as §1, §2

[9] = Precipitation from 0.01 M mixed-metal solution in HCl (FIG. 2): other metals; conditions: 0.2 mmol solid L (10-fold excess), 0.01 M mixed-metal solution in 2 M HCl
Procedure: as §3, §4, §5

[10] = Gold precipitation from HAuCl4 solutions versus acid concentration and temperature (FIGS. 7-9)
[11] = Precipitation from 0.01 M mixed-metal solution in HCl (FIG. 2): Pt; conditions: excess L, 0.01 M mixed-metal solution in 6 M HCl
Procedure: as §3, §4, §5

[12] = Selective precipitation from waste printed circuit boards (Table 3): Ni; conditions: 20% aqua regia solution from waste printed circuit boards; 0.02 mmol L, 1 hour
Procedure: as §1, §2

[13] = Precipitation from 0.01 M mixed-metal solution of precious metals in 6 M HCl (FIG. 10); conditions: 0.01 M precious metals in 6 M HCl
Procedure: FIG. 10 Graph showing percentage metal(s) removed by precipitation from a 0.01 M mixed-metal solution of precious metals in 6 M HCl following the addition of either 0.2 mmol of compound L (10-fold excess L relative to metal) or 0.02 mmol of L (equimolar);
as §3, §4
Referring to FIG. 10, there is shown a graph depicting percentage metal(s) removed by precipitation from a 0.01 M mixed-metal solution of precious metals in 6 M HCl following the addition of either 0.2 mmol of compound L (10-fold excess L relative to metal) or 0.02 mmol of L (equimolar).

[14] = Precipitation from multi-element ICP standard solutions (FIG. 4, FIG. 25): Au; conditions: excess compound, 24 hours, RT
Procedure: as §6, §7
(§8) FIGS. 25(a)-(c) show alternative embodiments of the compounds that were tested. Conditions were: 0.2 mmol of compound contacted with a 2 M or 6 M HCl multi element solution for 24 hours, RT.
(§9) The solution comprised: • 10 mg L^−1 Au, Ir, Os, Pd, Pt, Rh, Ru; and • 100 mg L^−1 Al, B, Ba, Bi, Ca, Cd, Co, Cr, Cu, Fe, Ga, In, K, Li, Mg, Mn, Na, Ni, Pb, Sr, Tl, Zn/

[15] = Precipitation of Au by L from various aqueous matrices (Table 1); conditions: 0.059 g L, 1 hour, room temperature
Procedure: Conditions: 2 mL Au solution contacted with 0.059 g L for 1 hour, room temperature. Solution filtered and diluted 100× in 2% HNO3 prior to ICP-OES analysis. *HAuCl4 used. **Au^0 added to sulfuric acid solution with a few drops of 30% hydrogen peroxide added to aid dissolution of Au. All solutions were diluted 100× prior to ICP-OES analysis.

[16] = Selective precipitation from waste printed circuit boards (Table 3): Sn; conditions: 20% aqua regia solution from waste printed circuit boards; 0.02 mmol L, 1 hour
Procedure: as §1, §2

[17] = Precipitation from multi-element ICP standard solutions (FIG. 4, FIG. 25): Ga; conditions: 6 M HCl multi-element solution (100 mg L^−1 Ga), excess compound, 24 hours, RT
Procedure: as §6, §7, §8, §9

[18] = Precipitation from 0.01 M mixed-metal solution in HCl (FIG. 2): Au
Procedure: as §3, §4, §5

[19] = Precipitation from 0.01 M mixed-metal solution in HCl (FIG. 2): Fe; conditions: excess L, 0.01 M mixed-metal solution in 6 M HCl
Procedure: as §3, §4, §5

[20] = Precipitation from multi-element ICP standard solutions (FIG. 4, FIG. 25): Fe; conditions: 6 M HCl multi-element solution (100 mg L^−1 Fe), excess compound, 24 hours, RT
Procedure: as §6, §7, §8, §9

[21] = Precipitation from multi-element ICP standard solutions (FIG. 4, FIG. 25): Tl; conditions: excess compound, 24 hours, RT
Procedure: as §6, §7, §8, §9

In the case of `CN(CCN(C)C(=O)c1ccccc1)C(=O)c1ccccc1` [L], the “% metal precipitated, Au” value [1] is reported as 98.1%, the “% Precipitation” value [2] is reported as 99.6% and the “metal stripped from the precipitate by a 2 M HCl wash” value ([3]; L loaded with Au, Fe, Pt and Sn at 6 M HCl, then wash with 2 M HCl) is reported as “dissolution of Fe, Sn and Pt only, with Au retained on the solids”. The “metal stripped from the precipitate by subsequent wash with DI water” value ([3]; isolated solids after the 2 M HCl wash, washed with DI water) was “releases the Au into solution”, the “uptake of Sn” value [4] was “complete uptake” and the Pt uptake [5] was “no Pt uptake”. It also gave a concentration of dissolved L ([6]; 2 M HCl, heated to 350 K) of 100 µM, a Dissolution of L (concentration of dissolved L) ([6]; 2 M HCl, quantitative 1H NMR) of 0.02 mM and a concentration of dissolved L ([6]; 6 M HCl, 300 K) of 320 µM. The “increase in dissolved L on increasing HCl from 2 M to 6 M” value ([6]; 300 K) was 16 fold, the “% metal precipitated, Pb” value [7] was 0% and the “% metal precipitated, Cu” value [8] was 0%. The “co-precipitation of other metals” value [9] was under 5%, the “quantity of [HL][AuCl4] precipitated over 5 minutes on raising temperature” value ([10]; 2 M HCl, from 20 to 40° C. and from 40 to 80° C.) was “doubles” and the “precipitation of [HL][AuCl4] on addition of HAuCl4” value ([10]; solution of L in 12 M HCl) was “rapid and wholesale precipitation”. For the same molecule, the “uptake of Pt” value [11] was “complete uptake”, the “% metal precipitated, Ni” value [12] was 0% and the “metal(s) removed by precipitation (selectivity)” value ([13]; equimolar L (0.02 mmol)) was “selective precipitation of gold over other precious metals”. For the same molecule, the “metal(s) removed by precipitation (selectivity)” value ([13]; excess L (0.2 mmol, 10-fold)) was “selective co-precipitation of gold and platinum”, the “% uptake / precipitation of Au” value ([14]; 2 M HCl multi-element solution (10 mg L^−1 Au)) was 70% and the “% uptake / precipitation of Au” value ([14]; 6 M HCl multi-element solution (10 mg L^−1 Au)) was over 99%. For the same molecule, the “% Precipitated” value ([15]; 2 mol L^−1 H2SO4 and 2M NaBr, Au^0 with H2O2, initial Au 1930 mg L^−1) was 99.5%, the “% Precipitated” value ([15]; 2 mol L^−1 H2SO4 and 2M NaCl, Au^0 with H2O2, initial Au 1940 mg L^−1) was 99.4% and the “% Precipitated” value ([15]; 20% Aqua regia, HAuCl4 used, initial Au 1920 mg L^−1) was 99.8%. For the same molecule, the “% Precipitated” value ([15]; 100% Aqua regia, HAuCl4 used, initial Au 1920 mg L^−1) was 99.7%, the “% metal precipitated, Sn” value [16] was 0% and the “% uptake / precipitation of Ga” value [17] was over 99%. The “removal of Au by precipitation” value ([18]; 0.2 mmol solid L (10-fold excess), 0.01 M each of Au, Al, Cu, Ni, Fe, Zn, Pt, Pd, Sn in 2 M HCl) was “near quantitative removal of Au”, the “uptake of Au” value ([18]; excess L, 0.01 M mixed-metal solution in 6 M HCl) was “complete uptake” and the “metal uptake (selectivity)” value ([18]; stoichiometric L (0.02 mmol), 0.01 M mixed-metal solution in 2 M HCl) was “gold uptake only”. For the same molecule, the “metal uptake (selectivity)” value ([18]; stoichiometric L, 0.01 M mixed-metal solution in 6 M HCl) was “selective gold uptake”, the “uptake of Fe” value [19] was “complete uptake” and the “% uptake / precipitation of Fe” value [20] was 70%. The “% uptake / precipitation of Tl” value ([21]; 2 M HCl multi-element solution (100 mg L^−1 Tl)) was 10% and the “% uptake / precipitation of Tl” value ([21]; 6 M HCl multi-element solution (100 mg L^−1 Tl)) was 95%.

— patent publication US20240368727A1, “METHOD OF SELECTIVE PRECIPITATION OF METALS USING AMIDE COMPOUNDS” (The University Court of the University of Edinburgh, priority 2021, published 2024)
